According to patent publication US20240327382A1 (ALMAC DISCOVERY LIMITED, priority 2021, published 2024):

molecular target: T1, Full-length USP19 (Homo sapiens, UniProt O94966); test: USP19 fluorescence polarisation (FP) assay, Ubiquitin-Lys-TAMRA substrate; type: biochemical; conditions: average of at least two duplicate experiments
T1 construct: Full-length USP19 was purchased from Boston Biochem (E-576); purchased Boston Biochem E-576
T1 sequence (O94966 1-1318): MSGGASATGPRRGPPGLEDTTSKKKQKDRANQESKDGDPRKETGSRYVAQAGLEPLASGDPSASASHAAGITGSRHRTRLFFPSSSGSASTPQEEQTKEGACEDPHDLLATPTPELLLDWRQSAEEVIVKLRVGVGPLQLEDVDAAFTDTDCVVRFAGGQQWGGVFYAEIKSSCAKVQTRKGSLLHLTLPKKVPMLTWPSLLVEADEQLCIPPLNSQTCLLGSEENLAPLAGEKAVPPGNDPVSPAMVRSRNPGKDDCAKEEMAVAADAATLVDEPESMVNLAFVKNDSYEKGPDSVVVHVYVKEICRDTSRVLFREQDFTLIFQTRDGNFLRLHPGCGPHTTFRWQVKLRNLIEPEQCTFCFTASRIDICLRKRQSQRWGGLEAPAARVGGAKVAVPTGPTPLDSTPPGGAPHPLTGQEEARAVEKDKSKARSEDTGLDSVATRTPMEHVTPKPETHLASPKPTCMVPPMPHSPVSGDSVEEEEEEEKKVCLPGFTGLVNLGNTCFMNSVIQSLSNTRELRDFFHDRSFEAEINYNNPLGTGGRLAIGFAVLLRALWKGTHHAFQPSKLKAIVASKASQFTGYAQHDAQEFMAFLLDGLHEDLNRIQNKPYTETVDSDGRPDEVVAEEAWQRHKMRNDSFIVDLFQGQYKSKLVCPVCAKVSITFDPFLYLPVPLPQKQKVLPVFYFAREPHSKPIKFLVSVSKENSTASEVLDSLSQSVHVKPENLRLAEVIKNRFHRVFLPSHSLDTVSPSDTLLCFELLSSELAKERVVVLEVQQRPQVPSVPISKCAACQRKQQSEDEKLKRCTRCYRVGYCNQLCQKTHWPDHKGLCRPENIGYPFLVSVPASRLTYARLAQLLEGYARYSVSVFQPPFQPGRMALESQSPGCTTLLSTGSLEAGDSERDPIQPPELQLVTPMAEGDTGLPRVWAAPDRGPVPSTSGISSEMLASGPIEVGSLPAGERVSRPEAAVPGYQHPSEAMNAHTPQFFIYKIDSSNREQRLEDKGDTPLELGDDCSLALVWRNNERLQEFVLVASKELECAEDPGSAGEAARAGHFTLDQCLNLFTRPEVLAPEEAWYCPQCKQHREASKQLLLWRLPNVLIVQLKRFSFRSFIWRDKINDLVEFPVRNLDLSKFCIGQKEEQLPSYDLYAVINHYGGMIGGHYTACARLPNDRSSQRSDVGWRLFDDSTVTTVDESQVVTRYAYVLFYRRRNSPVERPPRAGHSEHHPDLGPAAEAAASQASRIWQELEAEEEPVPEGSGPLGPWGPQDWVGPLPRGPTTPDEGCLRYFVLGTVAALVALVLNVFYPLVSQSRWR
Method in brief: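 Full-length human USP19 (added at 2.5 nM) was preincubated 30 min at RT with inhibitor (serial dilutions 200 μM to 2 μM) in 50 mM HEPES pH 7.4, 150 mM NaCl, 5 mM DTT, 0.05% BSA, 0.05% CHAPS. Ubiquitin-Lys-TAMRA isopeptide substrate (added at 500 nM) started the reaction, and FP (Ex 530/Em 575 nm) was read every 15 min over 90 min. IC50 came from non-linear regression of signal normalised to no-compound control, averaged over at least two duplicate experiments.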

First: CC1(C)CN(C(=O)N2CCNC[C@H]2c2ccccc2)CCC1Cn1cnc(-c2ccccc2)cc1=O (stereo partly drawn) [Example 18, 3-((33-Dimethyl-1-((R)-2-phenylpiperazine-1-carbonyl)piperidin-4-yl)methyl)-6-phenylpyrimidin-4(3H)-one]
Second: N[C@H]1C[C@@H](c2ccccc2)N(C(=O)N2CC[C@@H](Cn3cnc(-c4ccccc4)cc3=O)C3(CCCC3)C2)C1 [Example 70, 3-(((R)-7-((2S,4S)-4-Amino-2-phenylpyrrolidine-1-carbonyl)-7-azaspiro[4.5]decan-10-yl)methyl)-6-phenylpyrimidin-4(3H)-one]
The IC50 of the first is higher: 10 to 100 nM for the first, < 10 nM for the second. The second is the more potent here.

`CN[C@@H]1CCN(C(=O)N2CC[C@@H](Cn3cnc4ccccc4c3=O)C3(CCCC3)C2)[C@H](c2cc(F)ccc2F)C1` [Example 199, 3-(((R)-7-((2S,4R)-2-(2,5-Difluorophenyl)-4-(methylamino)piperidine-1-carbonyl)-7-azaspiro[4.5]decan-10-yl)methyl)quinazolin-4(3H)-one] and `CN[C@@H]1CCN(C(=O)N2CC[C@@H](Cn3cnc4ccc(F)cc4c3=O)C3(CCCC3)C2)[C@H](c2ccc(F)cc2F)C1` [Example 191, 3-(((R)-7-((2S,4R)-2-(2,4-Difluorophenyl)-4-(methylamino)piperidine-1-carbonyl)-7-azaspiro[4.5]decan-10-yl)methyl)-6-fluoroquinazolin-4(3H)-one] cannot be ordered by IC50: < 10 nM for the first, < 10 nM for the second.

Compared with `C[C@H](CC(F)(F)F)C(=O)N1CCC(N)(Cn2cnc(-c3ccccc3)cc2=O)C2(CCCC2)C1` (stereo partly drawn) [Example 49, 3-((10-Amino-7-((R)-4,4,4-trifluoro-2-methylbutanoyl)-7-azaspiro[4.5]decan-10-yl)methyl)-6-phenylpyrimidin-4(3H)-one], `COC[C@H](CC(F)(F)F)C(=O)N1CCC(Cn2cnc(-c3ccccc3)cc2=O)C2(CCCC2)C1` (stereo partly drawn) [Example 7, 6-Phenyl-3-((7-((S)-4,4,4-trifluoro-2-(methoxymethyl)butanoyl)-7-azaspiro[4.5]decan-10-yl)methyl)pyrimidin-4(3H)-one] is higher in IC50: 100 to 1000 nM for the first, 1000 to 20000 nM for the second. The first is the more potent here.

`N[C@@H]1CCN(C(=O)N2CC[C@@H](Cn3ccc(-c4ccccc4)cc3=O)C3(CCCC3)C2)[C@H](c2cc(F)ccc2F)C1` [Example 87, 1-(((R)-7-((2S,4R)-4-Amino-2-(2,5-difluorophenyl)piperidine-1-carbonyl)-7-azaspiro[4.5]decan-10-yl)methyl)-4-phenylpyridin-2(1H)-one] and `Cc1ccccc1-c1cc(=O)n(C[C@@H]2CCN(C(=O)N3CC[C@@H](N)C[C@H]3c3cc(F)ccc3F)CC23CCCC3)cn1` [Example 82, 3-(((R)-7-((2S,4R)-4-Amino-2-(2,5-difluorophenyl)piperidine-1-carbonyl)-7-azaspiro[4.5]decan-10-yl)methyl)-6-(o-tolyl)pyrimidin-4(3H)-one] cannot be ordered by IC50: < 10 nM for the first, < 10 nM for the second.

`N[C@@H]1CCN(C(=O)N2CC[C@@H](Cn3ccc(Cl)cc3=O)C3(CCCC3)C2)[C@H](c2ccccc2)C1` [Example 67, 1-(((R)-7-((2S,4R)-4-Amino-2-phenylpiperidine-1-carbonyl)-7-azaspiro[4.5]decan-10-yl)methyl)-4-chloropyridin-2(1H)-one] and `CN[C@@H]1CCN(C(=O)N2CC[C@@H](Cn3ccc(Cl)cc3=O)C3(CCCC3)C2)[C@H](c2ccccc2)C1` [Example 83, 4-Chloro-1-(((R)-7-((2S,4R)-4-(methylamino)-2-phenylpiperidine-1-carbonyl)-7-azaspiro[4.5]decan-10-yl)methyl)pyridin-2(1H)-one] cannot be ordered by IC50: < 10 nM for the first, < 10 nM for the second.

`COc1ccccc1-c1ccn(C[C@@H]2CCN(C(=O)N3CC[C@@H](N)C[C@H]3c3ccccc3)CC23CCCC3)c(=O)c1` [Example 59, 1-(((R)-7-((2S,4R)-4-Amino-2-phenylpiperidine-1-carbonyl)-7-azaspiro[4.5]decan-10-yl)methyl)-4-(2-methoxyphenyl)pyridin-2(1H)-one] and `CC1(N[C@@H]2CCN(C(=O)N3CC[C@@H](Cn4ccc(-c5ccccc5)cc4=O)C4(CCCC4)C3)[C@H](c3ccccc3)C2)COC1` [Example 111, 1-(((R)-7-((2S,4R)-4-((3-Methyloxetan-3-yl)amino)-2-phenylpiperidine-1-carbonyl)-7-azaspiro[4.5]decan-10-yl)methyl)-4-phenylpyridin-2(1H)-one] cannot be ordered by IC50: < 10 nM for the first, < 10 nM for the second.

`CN[C@@H]1CCN(C(=O)N2CC[C@@H](Cn3cnc(-c4ccccc4OC)cc3=O)C3(CCCC3)C2)[C@H](c2cc(F)cc(F)c2)C1` [Example 124, 3-(((R)-7-((2S,4R)-2-(3,5-Difluorophenyl)-4-(methylamino)piperidine-1-carbonyl)-7-azaspiro[4.5]decan-10-yl)methyl)-6-(2-methoxyphenyl)pyrimidin-4(3H)-one] and `CN[C@@H]1CCN(C(=O)N2CC[C@@H](Cn3cnc(-c4ccccc4OC)cc3=O)C3(CCCC3)C2)[C@H](c2cccc(F)c2)C1` [Example 102, 3-(((R)-7-((2S,4R)-2-(3-Fluorophenyl)-4-(methylamino)piperidine-1-carbonyl)-7-azaspiro[4.5]decan-10-yl)methyl)-6-(2-methoxyphenyl)pyrimidin-4(3H)-one] cannot be ordered by IC50: < 10 nM for the first, < 10 nM for the second.

`N[C@@H]1CCN(C(=O)N2CCC(Cn3cnc4c(cnn4C4CC4)c3=O)C3(CCCC3)C2)[C@H](c2ccccc2)C1` (stereo partly drawn) [Example 35, 5-((7-((2S,4R)-4-Amino-2-phenylpiperidine-1-carbonyl)-7-azaspiro[4.5]decan-10-yl)methyl)-1-cyclopropyl-1,5-dihydro-4H-pyrazolo[3,4-d] pyrimidin-4-one] and `Cc1ccccc1-c1cc(=O)n(C[C@@H]2CCN(C(=O)N3CC[C@@H](N)C[C@H]3c3cccc(F)c3)CC23CCCC3)cn1` [Example 81, 3-(((R)-7-((2S,4R)-4-Amino-2-(3-fluorophenyl)piperidine-1-carbonyl)-7-azaspiro[4.5]decan-10-yl)methyl)-6-(0-tolyl)pyrimidin-4(3H)-one] cannot be ordered by IC50: < 10 nM for the first, < 10 nM for the second.

`CN[C@@H]1CCN(C(=O)N2CC[C@@H](Cn3ccc(-c4ccccc4OC)cc3=O)C3(CCCC3)C2)[C@H](c2cc(F)ccc2F)C1` [Example 113, 1-(((R)-7-((2S,4R)-2-(2,5-Difluorophenyl)-4-(methylamino)piperidine-1-carbonyl)-7-azaspiro[4.5]decan-10-yl)methyl)-4-(2-methoxyphenyl)pyridin-2(1H)-one] and `CN[C@@H]1CCN(C(=O)N2CC[C@@H](Cn3cnc(-c4ccccc4OC)cc3=O)C3(CCCC3)C2)[C@H](c2cc(F)ccc2F)C1` [Example 99, 3-(((R)-7-((2S,4R)-2-(2,5-Difluorophenyl)-4-(methylamino)piperidine-1-carbonyl)-7-azaspiro[4.5]decan-10-yl)methyl)-6-(2-methoxyphenyl)pyrimidin-4(3H)-one] cannot be ordered by IC50: < 10 nM for the first, < 10 nM for the second.

First: C[C@H]1CN(C(=O)N2CC[C@@H](Cn3cnc4ccc(F)cc4c3=O)C3(CCCC3)C2)[C@H](c2cc(F)ccc2F)CO1 [Example 200, 3-(((R)-7-((2S,5R)-5-(2,5-Difluorophenyl)-2-methylmorpholine-4-carbonyl)-7-azaspiro[4.5]decan-10-yl)methyl)-6-fluoroquinazolin-4(3H)-one]
Second: CC(C)N[C@@H]1CCN(C(=O)N2CC[C@@H](Cn3cnc4ccc(F)cc4c3=O)C3(CCCC3)C2)[C@H](c2cc(F)ccc2F)C1 [Example 189, 3-(((R)-7-((2S,4R)-2-(2,5-Difluorophenyl)-4-(isopropylamino)piperidine-1-carbonyl)-7-azaspiro[4.5]decan-10-yl)methyl)-6-fluoroquinazolin-4(3H)-one]
The IC50 of the first is higher: 10 to 100 nM for the first, < 10 nM for the second.

With `CN[C@@H]1CCN(C(=O)N2CC[C@](Cn3ccc(-c4ccccc4)cc3=O)(OC)C3(CCCC3)C2)[C@H](c2ccccc2)C1` [Example 58, 1-(((S)-10-Methoxy-7-((2S,4R)-4-(methylamino)-2-phenylpiperidine-1-carbonyl)-7-azaspiro[4.5]decan-10-yl)methyl)-4-phenylpyridin-2(1H)-one] the IC50 was < 10 nM.
